Experiment [1] deals with alkaline protease Ya (enzyme Ya) produced by Bacillus sp. Y (FERM BP-1029). In kind it is biochemical. The settings on record: for Relative Activity Enzyme Ya: pH 7.2, 30 min.
Experiment [2] has as its system alkaline protease Yb (enzyme Yb) produced by Bacillus sp. Y (FERM BP-1029). It is filed as biochemical. As to conditions: for Relative Activity Enzyme Yb: pH 7.2, 30 min.

Read-outs that look alike come from different tables or passages of the source. Numbered stars: 1 amine (or outer) side, 2 acyl side, 3 side chain; on linkers, the order of the positions; unused ones are H or OH. Peptide text beside a SMILES is read from it. CO = O=C([*:1])[*:2]

As to `O=S(=O)(F)Cc1ccccc1` [PMSF], in experiment [1], the “Inhibition of enzyme Ya (in words)” value is “inhibited”. Moreover, the “Relative Activity Enzyme Ya” value in experiment [1] (1000 µM) was 0. Moreover, the “Inhibition of enzyme Yb (in words)” value in experiment [2] is recorded as “inhibited”. In addition, the “Relative Activity Enzyme Yb” value in experiment [2] (1000 µM) worked out at 1.

Take `NC(N)=O` [Urea]: in experiment [1], the “Relative Activity Enzyme Ya” value was found to be 130. For the same molecule, the “Relative Activity Enzyme Yb” value in experiment [2] was determined as 82.

Turning to `CC(C)[C@H](NC(=O)[C@H](CCCNC(=N)N)NC(=O)N[C@@H](Cc1ccccc1)C(=O)O)C(=O)N[C@H](C=O)CCCNC(=N)N` [Antipain] ({Phe-CO}-Arg-Val-Arg-aldehyde), in experiment [1], the “Inhibition of enzyme Ya (in words)” value is “not inhibited” and the “Relative Activity Enzyme Ya” value stood at 124. For the same molecule, in experiment [2], the “Inhibition of enzyme Yb (in words)” value is on record as “not inhibited” and the “Relative Activity Enzyme Yb” value was 87.

Turning to `O=C(O)c1cc[c]([Hg][Cl])cc1` [PCMB], the “Inhibition of enzyme Ya (in words)” value in experiment [1] is recorded as “not inhibited”. The “Relative Activity Enzyme Ya” value in experiment [1] (1000 µM) is given as 122. Also, the “Inhibition of enzyme Yb (in words)” value in experiment [2] is “not inhibited”. For the same molecule, in experiment [2] (1000 µM), the “Relative Activity Enzyme Yb” value is given as 92.

As for `O=C(O)CN(CCN(CC(=O)O)CC(=O)O)CC(=O)O` [EDTA], the “Inhibition of enzyme Ya (in words)” value in experiment [1] is reported as “not inhibited”. Besides, the “Relative Activity Enzyme Ya” value in experiment [1] (5000 µM) is 97. The “Inhibition of enzyme Yb (in words)” value in experiment [2] is listed as “not inhibited”. In experiment [2] (5000 µM), the “Relative Activity Enzyme Yb” value turned out to be 100.

Turning to Chymostatin, in experiment [1], the “Inhibition of enzyme Ya (in words)” value was “not inhibited” and the “Relative Activity Enzyme Ya” value came to 77. In experiment [2], the “Inhibition of enzyme Yb (in words)” value is “not inhibited” and the “Relative Activity Enzyme Yb” value was 75.
